The NIST ThermoML archive (doi:10.1016/j.fluid.2007.07.065)
Numbers after ± are expanded uncertainties.

Conditions: Crystal; Heating/Cooling curves

Normal melting temperature [°C]	Structure (SMILES)
16.69 ± 0.1	CC(=O)O [acetic acid]
2.39 ± 0.1	NC=O [formamide]
-20.61 ± 0.1	CCC(=O)O [propanoic acid]
